This assay has as its target T1, TMEM16A (Mus musculus, UniProt Q8BHY3).
T1 construct: gene Ano1
T1 sequence (Q8BHY3 1-960): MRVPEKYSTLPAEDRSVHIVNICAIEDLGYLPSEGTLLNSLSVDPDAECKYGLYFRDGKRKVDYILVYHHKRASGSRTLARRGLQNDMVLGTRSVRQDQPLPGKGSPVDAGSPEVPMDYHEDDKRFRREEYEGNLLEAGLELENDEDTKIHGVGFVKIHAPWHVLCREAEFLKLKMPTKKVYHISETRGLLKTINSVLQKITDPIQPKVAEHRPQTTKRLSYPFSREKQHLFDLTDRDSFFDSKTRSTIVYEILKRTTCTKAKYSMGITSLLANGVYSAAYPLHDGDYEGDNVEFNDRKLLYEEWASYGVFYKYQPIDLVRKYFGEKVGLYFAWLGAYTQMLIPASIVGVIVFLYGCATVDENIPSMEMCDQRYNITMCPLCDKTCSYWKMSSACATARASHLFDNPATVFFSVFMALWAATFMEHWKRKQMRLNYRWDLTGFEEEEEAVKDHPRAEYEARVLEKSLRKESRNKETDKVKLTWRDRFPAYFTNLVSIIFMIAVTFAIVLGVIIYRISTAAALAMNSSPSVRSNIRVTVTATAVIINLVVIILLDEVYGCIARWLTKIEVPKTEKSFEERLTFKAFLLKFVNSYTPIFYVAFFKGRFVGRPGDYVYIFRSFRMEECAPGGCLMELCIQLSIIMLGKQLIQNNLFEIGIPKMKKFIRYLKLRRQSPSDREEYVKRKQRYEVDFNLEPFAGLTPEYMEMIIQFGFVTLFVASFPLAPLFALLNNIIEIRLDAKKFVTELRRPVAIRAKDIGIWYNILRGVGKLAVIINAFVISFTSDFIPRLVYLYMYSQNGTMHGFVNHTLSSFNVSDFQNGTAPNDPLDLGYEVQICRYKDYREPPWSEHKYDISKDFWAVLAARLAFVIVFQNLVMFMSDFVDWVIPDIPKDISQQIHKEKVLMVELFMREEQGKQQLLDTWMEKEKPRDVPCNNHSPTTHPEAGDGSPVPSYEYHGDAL
The experiment in a line: whole-cell patch clamp in LA795 cells; YFP quenching; site-directed mutagenesis. The format is cell-based. A general note: In patch-clamp work, channel activity is measured electrically.

This passage reports IC50 results from publication PMC8079988, “Inhibition of TMEM16A by Natural Product Silibinin: Potential Lead Compounds for Treatment of Lung Adenocarcinoma” (Frontiers in Pharmacology, 2021).

Usually IC50 stands for the concentration that gives 50% inhibition.

In the case of `COc1cc(C2Oc3cc([C@H]4Oc5cc(O)cc(O)c5C(=O)[C@@H]4O)ccc3OC2CO)ccc1O` (stereo partly shown) [silibinin], the half-inhibitory concentration (IC50) turned out to be 30.9 ± 2.1 µM.
